# Experiments:
# [1] = tested on: S. aureus (ATCC 25923) infected tarsocrural joint; test: Equine S. aureus infectious arthritis model (BIO-PLY 5 mL + 500 mg amikacin vs 500 mg amikacin + saline, intra-articular daily for 7 days); format: in vivo, horse; conditions: end-term (day 24; legend b39: day 23-24); BIO-PLY + amikacin group vs amikacin alone group, n=6 each
# From the text: Subsequently, the in vitro findings were translated into an in vivo equine model of S. aureus-induced infectious arthritis. Using this model, it was hypothesized that the combination of BIO-PLY and amikacin will decrease bacterial burden and improve outcome parameters in an equine S. aureus infectious arthritis model compared to horses treated with amikacin alone. A highly concentrated (>50 fold), pooled PRP-L was generated from 8 healthy donor horses and processed to have the anionic fraction, including fibrinogen, removed and passed through a 10 kDa molecular weight cutoff filter to remove proteins […] termed BIO-PLY as stated above (IACUC protocol #16-189 of NC State University, Raleigh, N.C.). […]
# All horses received systemic antimicrobials (potassium penicillin and gentamicin) for 10 days post-infection as well as a tapering course of phenylbutazone for the duration of the study. Physical examinations were performed daily and pain scores based on lameness, hock swelling, distal limb swelling, pain to palpation, and presence of heat were calculated at days 0-7, 14 and 21. […] Synovial fluid was collected on day 0-7 and assessed for total protein (TP), total nucleated cell count (TNCC), cellular differential, and bacterial load determination, as well as biomarker analysis (EMD Millipore MILLIPLEX MAP Equine Cytokine/Chemokine Magnetic Bead Panel). […]
# [2] = tested on: all isolates used in this study; test: Antimicrobial susceptibility by microbroth dilution; format: cell-based
# From the text: The laboratory strain of Staphylococcus aureus, ATCC 25923, was used to initially screen the different PRP formulations. Significant findings were then validated using clinical isolates derived from cases of equine septic arthritis collected by the University of Pennsylvania School of Veterinary Medicine New Bolton Center Clinical Microbiology Laboratory and processed in accordance with their Standard Operating Procedures. In vitro antimicrobial susceptibility testing and microbial identification was performed using the ARIS Sensititre™ system, using the equine (EQUIN1F) antimicrobial susceptibility panel for veterinary organisms. Bacteria were saved in frozen stocks on glycerol at −80° C. Blood agar plates were streaked from frozen stocks and used for in vitro experiments for a maximum of 1 month. […]
# Synovial fluid pooled from three horses (n=3) was infected at 1×10^5 CFU/mL for Staphylococcus aureus (ATCC 25923) or for each clinical isolate (Staphylococcus aureus, Streptococcus zooepidemicus, Pseudomonas aeruginosa, and Escherichia coli) and incubated for 2 hours at 37° C. in a microaerophilic chamber on a shaker at 120 rpm to allow for […] formation. […] Bacterial load was measured using serial dilutions and plate counting of colony forming units. […]
compound,measurement,setting,value
NCC[C@H](O)C(=O)N[C@@H]1C[C@H](N)[C@@H](O[C@H]2O[C@H](CN)[C@@H](O)[C@H](O)[C@H]2O)[C@H](O)[C@H]1O[C@H]1O[C@H](CO)[C@@H](O)[C@H](N)[C@H]1O [amikacin],bacteria within the synovial tissue at end-term,[1],80.95±58.77 CFU/g tissue
same,susceptibility of isolates to amikacin,[2],susceptible

# Reference: patent US11951134B2, “Cationic platelet lysate compositions and related methods” (North Carolina State University, priority 2019, dated 2024)
